Source: patent US9302993B2, “8-hydroxy quinoline derivatives” (PRANA BIOTECHNOLOGY LIMITED, priority 2002, dated 2016)
“And” between values parts separate entries of the source, which are not always exact repeats. Equal entries are not always repeated. Where two headings read alike, the source gives them in different places.

Key:
[1] = Pharmacokinetic profile, IV and oral (Assay 16); assay type: in vivo; conditions: rat; for BA (%): oral, calculated using the truncated AUC; for clearance: read-out: Cltotal (mL/min/Kg), total plasma clearance
Protocol: Assay 16. Pharmacokinetic Profile
• Intravenous infusion of PBT-1033; 2 mg/Kg (1 mL of a 0.5 mg/mL solution in 7.5% DMSO with 0.1 m Captisol in Citrate Buffer adjusted to pH 3.0) was administered over 5 minutes to 2 rats and arterial blood was sampled up to 24 hours. • Oral administration of PBT-1033; 30 mg/Kg (as a suspension in CMC-SSV*) via administered via oral gavage to 2 rats and arterial blood was sampled up to 26 hours. * Standard Suspending Vehicle—0.5% w/v Na-Carboxymethyl Cellulose (CMC), 5% v/v benzyl alcohol, 4% v/v Tween 80 in 0.9% NaCl. • Plasma concentrations of PBT-1033 were determined by LCMS (LOQ 3.7 nM). For rat 020710-D, an overlapping peak was present for PBT-1033.
[formula] [formula] [formula] Calculations: • CLtotal=total plasma clearance after IV administration • Vdβ=volume of distribution during the elimination phase after IV administration • BA=oral bioavailability • AUCIV=area under the plasma concentration versus time profile from time zero to infinity after IV administration • AUCoral=area under the plasma concentration versus time profile from time zero to infinity after oral administration • β=terminal elimination rate constant after IV administration • The results are shown in FIG. 4(a). (b) PBT-1038 • Intravenous infusion of PBT-1038; (0.5 mg/Kg in 7.5% DMSO in Citrate Buffer pH 3.0) was administered over 5 minutes to 2 rats and arterial blood was sampled up to 24 hours. • Oral administration of PBT-1038; (30 mg/Kg as a 0.05% CMC suspension) via administered via oral gavage to 2 rats and arterial blood was sampled up to 24 hours. • Plasma concentrations of PBT-1038 were determined by MS (LOQ 3 nM)
(c) PBT-1050 • Intravenous infusion of PBT-1050; (2 mg/Kg in 7.5% DMSO in Citrate Buffer pH 3.0) was administered over 5 minutes to 2 rats and arterial blood was sampled up to 24 hours. • Oral administration of PBT-1050; (30 mg/Kg as a 0.05% CMC suspension) was administered via oral gavage to 2 rats and arterial blood was sampled up to 24 hours. • Plasma concentrations of PBT-1050 were determined by MS (LOQ 3 nM)
(d) PBT-1051 • Intravenous infusion of PBT-1051; 2 mg/Kg (1 mL of a 0.6 mg/mL solution in 7.5% DMSO in Citrate Buffer pH 3.0) was administered over 5 minutes to 2 rats and arterial blood was sampled up to 24 hours. • Oral administration of PBT-1051; 30 mg/Kg (as a suspension in CMC-SSV*) was administered via oral gavage to 2 rats and arterial blood was sampled up to 24 hours. * Standard Suspending Vehicle—0.5% w/v Na-Carboxymethyl Cellulose (CMC), 5% v/v benzyl alcohol, 4% v/v Tween 80 in 0.9% NaCl. • Plasma concentrations of PBT-1051 were determined by LCMS (LOQ 3.7 nM)

[2] = E Log D, chromatographic method (Assay 13); assay type: physicochemical; conditions: SUPELCOSIL LC-ABZ column with octanol saturated mobile phase, pH 7.4; read-out: E Log D7.4
Protocol: Effective Log D values were measured using a chromatographic method employing a SUPELCOSIL LC-ABZ column using an octanol saturated mobile phase at pH 7.4.

[3] = system: Aβ in extract of tissue from post mortem human AD brain; assay: Human brain amyloid solubilisation assay (Assay 9, BAS); assay type: biochemical; conditions: solubilising plaques relative to PBS
Outline: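 Plaque-bearing post mortem AD cortex homogenised in ice-cold PBS pH 7.4 and spun 100,000×g, 30 min to separate PBS-soluble supernatant from insoluble pellet. Aβ in each fraction resolved on Tris-Tricine 10-20% gels, immunoblotted with W02 antibody and ECL, quantified by densitometry against synthetic Aβ40 standards (0.5, 1, 2 ng).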

[4] = Blood brain barrier penetration, brain perfusion (Assay 14); assay type: in vivo; conditions: rat brain perfusion, 50 μM, 1.5 minutes
Protocol: Assay 14. Blood Brain Barrier Penetration
A trace amount of ^14C-sucrose was added to each stock infusion solution (approx 0.01 μCi/mL) to act as Blood-Brain Barrier (BBB)-impermeable marker in order to assess the integrity of the BBB during each perfusion and to estimate the volume of the residual vascular space (RVS) in samples of brain tissue (ie: the volume of fluid remaining inside the lumen of blood vessels at the end of each perfusion).
The right common carotid artery was surgically exposed and cannulated for perfusion of the cerebral circulation. The right external carotid artery (which supplies tissues outside the skull) was then ligated distal to its bifurcation from the right common carotid artery so that all of the infusion solution would pass into the brain via the remaining right internal carotid artery. The heart was then exposed and transected immediately prior to the commencement of the infusion. […] The infusion cannula initially contained a 0.5 mL pre-wash of heparinised PBS (10 IU/ml) that acts to flush blood vessels and to prevent blood from clotting and blocking small vessels.
After 1.5 minutes, the infusion pump automatically stopped, the cannula was withdrawn from the carotid artery and a sample of the infusion solution (1-1.5 mL) was then collected from the tip of the infusion cannula. The brain was then dissected free and divided into 3 parts; the right hemisphere together with the right midbrain, the left hemisphere together with the left midbrain and the hindbrain (cerebellum, pons and brainstem). Only the right part of the brain was used for subsequent measurements because perfusion via the right internal carotid artery preferentially supplies the right hemisphere and right midbrain (the left hemisphere and hindbrain receive a variable collateral perfusion). The brain tissue samples from each animal were frozen at −30° C., homogenized and weighed aliquots analysed by LC-MS to give total brain concentration. The analysis was carried out using the Micromass Triple Quad instrument. The mobile phase consisted of an acetonitrile/water gradient (containing 0.05% Formic acid) and the column was a Phenomenex Luna CN.
Small aliquots from each brain tissue sample and the corresponding infusion solution were analysed by liquid scintillation counting to determine the level of ^14C-sucrose. The residual vascular space (RVS) in each brain tissue sample was calculated by dividing the measured concentration of sucrose in brain tissue (dpm/mg) by its concentration in the corresponding infusion solution (dpm/μL). This is the volume of fluid that remains inside blood vessels at the end of each perfusion. […]
A total of 5-6 brain perfusion experiments were performed for each of the test compounds and mean brain uptake ratios were calculated.

[5] = IV, individual rats, listed as PBT 1033, hydrochloride
[6] = PO 30 mg/Kg, individual rats, listed as PBT 1033, hydrochloride, 30 mg/kg
[7] = plasma, po, 30 mg/kg, PO 30 mg/Kg, Mean ± SD
[8] = plasma, po, 30 mg/kg, PO 30 mg/Kg, Mean ± SD, read-out: Tmax (converted)
[9] = plasma, po, 30 mg/kg, PO 30 mg/Kg, individual rats
[10] = plasma, po, 30 mg/kg, PO 30 mg/Kg, individual rats, read-out: Tmax (converted)
[11] = PO 30 mg/Kg, individual rats, listed as PBT 1050, 30 mg/kg
[12] = IV, individual rats, listed as PBT 1051, hydrochloride
[13] = PO 30 mg/Kg, individual rats, listed as PBT 1051, hydrochloride, 30 mg/kg

Compound: CN(C)Cc1ccc2c(Cl)cc(Cl)c(O)c2n1.Cl [compound 1033, 5,7-Dichloro-2-dimethylaminomethyl-quinolin-8-ol hydrochloride]
- VdB ([1]; IV, Mean ± SD): 9.03 ± 3.07 L/kg
- Cltotal (mL/min/Kg), total plasma clearance [1, 5]: 145.69 mL/min/kg
- Cmax [1, 5]: 0.7 µM and 2.48 µM
- Tmax [1, 5]: 20 min and 5 min
- VdB [1, 5]: 6.86 L/kg and 11.20 L/kg
- t1/2 [1, 5]: 53.29 min
- Cmax [1, 6]: 1.36 µM
- Tmax [1, 6]: 60 min
- BA (%) ([1]; Mean ± SD): 25.25 ± 0.29%
- BA (%) ([1]; individual rats, listed as PBT 1033, hydrochloride): 25.45% and 25.04%
- clearance ([1]; plasma, iv, 2 mg/kg, IV, Mean ± SD): 118 ± 38.7 mL/min/kg
- Tmax ([1]; plasma, iv, 2 mg/kg, IV, Mean ± SD, read-out: Tmax (converted)): 12.5 min
- clearance ([1]; plasma, iv, 2 mg/kg, IV, individual rats): 91 mL/min/kg
- Cmax ([1]; plasma, iv, 2 mg/kg, Mean ± SD): 1.59 ± 1.26 µM
- half-life ([1]; plasma, iv, 2 mg/kg, Mean ± SD): 52.8 ± 0.73 min
- half-life ([1]; plasma, iv, 2 mg/kg, individual rats): 52.2 min
- Cmax [1, 7]: 1.69 ± 0.47 µM
- Tmax [1, 8]: 52.5 min
- Cmax [1, 9]: 2.02 µM
- Tmax [1, 10]: 45 min
- chromatographic logD [2]: 1.32
- BAS Score [3]: +
- Uptake Ratio [4]: >50%

Compound: O=C(NCCc1c[nH]cn1)c1ccc2c(Cl)cc(Cl)c(O)c2n1 [compound 1038, 5,7-Dichloro-8-hydroxyquinoline-2-carboxylic acid [2-(1H-imidazol-4-yl)-ethyl]-amide]
- Cmax ([1]; IV, individual rats, listed as PBT 1038): 8.06 µM and 2.84 µM
- Tmax ([1]; PO 30 mg/Kg, individual rats): 45 min
- Cmax ([1]; PO 30 mg/Kg, individual rats, listed as PBT 1038, 30 mg/kg): 68.5 µM
- Cmax ([1]; plasma, iv, Mean ± SD): 5.45 ± 3.7 µM
- Cmax [1, 7]: 63.1 ± 7.57 µM
- Tmax [1, 8]: 45 min
- Cmax [1, 9]: 57.8 µM
- Tmax [1, 10]: 45 min
- chromatographic logD [2]: 2.92
- BAS Score [3]: +
- Uptake Ratio [4]: >50%

Compound: Cn1cnc(CCNC(=O)c2ccc3c(Cl)cc(Cl)c(O)c3n2)c1 [compound 1050, 5,7-dichloro-8-hydroxyquinoline-2-carboxylic acid [2-(1-methyl-1H-imidazol-4-yl)-ethyl]-amide]
- Cmax ([1]; IV, individual rats, listed as PBT 1050): 33.9 µM and 16.9 µM
- Cmax [1, 11]: 61 µM and 7.03 µM
- Tmax [1, 11]: 45 min and 120 min
- Cmax ([1]; plasma, iv, 2 mg/kg, Mean ± SD): 25.4 ± 12.1 µM
- Cmax [1, 7]: 34 ± 38.2 µM
- Tmax [1, 8]: 82.5 min
- chromatographic logD [2]: 2.98
- Uptake Ratio [4]: >50%

Compound: CCNCc1ccc2c(Cl)cc(Cl)c(O)c2n1.Cl [compound 1051, 5,7-dichloro-2-ethylaminomethyl-quinolin-8-ol hydrochloride]
- VdB ([1]; IV, Mean ± SD): 9.64 ± 0.77 L/kg
- Cltotal (mL/min/Kg), total plasma clearance [1, 12]: 135.58 mL/min/kg
- Cmax [1, 12]: 3.03 µM
- VdB [1, 12]: 10.19 L/kg and 9.10 L/kg
- t1/2 [1, 12]: 46.52 min
- Cmax [1, 13]: 3.18 µM and 1.5 µM
- Tmax [1, 13]: 30 min
- t1/2 [1, 13]: 365.72 min
- BA (%) ([1]; Mean ± SD): 27.75 ± 14.43%
- BA (%) ([1]; individual rats, listed as PBT 1051, hydrochloride): 37.96% and 17.55%
- clearance ([1]; plasma, iv, 2 mg/Kg, IV, Mean ± SD): 144 ± 12.5 mL/min/kg
- clearance ([1]; plasma, iv, 2 mg/Kg, IV, individual rats): 153 mL/min/kg
- half-life ([1]; plasma, iv, 2 mg/Kg, Mean ± SD): 46.3 ± 0.32 min
- half-life ([1]; plasma, iv, 2 mg/Kg, individual rats): 46.1 min
- Cmax ([1]; plasma, iv, Mean ± SD): 2.99 ± 0.05 µM
- Cmax ([1]; plasma, iv, individual rats): 2.96 µM
- Cmax [1, 7]: 2.34 ± 1.18 µM
- half-life [1, 7]: 283 ± 117 min
- Tmax [1, 8]: 45 min
- half-life [1, 9]: 200 min
- Tmax [1, 10]: 60 min
- chromatographic logD [2]: 2.64
- BAS Score [3]: +
- Uptake Ratio [4]: >50%
